Assay [1] concerns STAT5. Kind of assay: IL-2-pulsed STAT5 phosphorylation in alloactivated T cells (flow cytometry). In kind it is cell-based, human. The protocol: The 3-day exposure to allogenic moDCs allows the responding T cells to increase CD25 expression and capacity to receive IL-2 signaling, while resting or stimulated T cells phosphorylate STAT3 in response to IL-6 [Betts, B. C., et al. (2011) Blood 118, 5330-5339]. […] T-cell STAT phosphorylation was determined by surface staining for CD3, followed by fixation (CytoFix; […] The percentage of STAT3 and bright STAT5 phosphorylation in the T cells is depicted by the gates in each respective histogram (FIG. 1C, D).
(In general: Flow cytometry measures light scatter and fluorescence of single cells or particles in a stream.)

Assay [2] concerns STAT5. Kind of assay: STAT5 phosphorylation in CD4+ T cells of 5 day allo-MLRs without exogenous cytokine. In kind it is cell-based, human. The protocol: No exogenous cytokine was added. DC-allosensitized T cells were harvested on day 5. […] The ratio of CD4^+, pSTAT5^Bright to CD4^+, pSTAT3^+ T cells was calculated by percentage of phosphorylation.
The next assay relates to iTregs and Tconvs. Kind of assay: iTreg and Tconv expansion from DC-allostimulated naive CD4+ T cells. In kind it is cell-based, human. The protocol:
To evaluate iTreg development, naive CD4^+ cells were isolated from nylon-wool-eluted T cells by magnetic-bead selection (Miltenyi Biotec), based on the positive expression of CD4 and lack of CD45RO, CD25, or both. In addition, CD127 staining of the naive CD4^+ cells was performed after the purification, to ensure depletion of natural Tregs from the cell product. Negligible amounts of CD127^-, CD25^Bright nTregs were observed after magnetic-bead purification. […] The T cells were harvested and surface stained on day 5 for CD3, -4, -25, and -127, followed by fixation and permeabilization (eBioscience), and then intracellular staining for Foxp3 [Liu, W., et al. (2006) J. Exp. Med. 203, 1701-1711; […]., et al. (2006) J. Exp. Med. 203, 1693-1700]. Tregs were characterized by gating on the live cells expressing surface CD3^+, CD4^+, and absence of CD127, followed by expression of Foxp3 and CD25^bright [Liu, W., et al. (2006) J. Exp. Med. 203, 1701-1711; […]., et al. (2006) J. Exp. Med. 203, 1693-1700]. The absolute number of iTregs and Tconv (CD4^+ CD25^-) cells was obtained by timed acquisition. The ratio of iTreg:Tconv was calculated based on the absolute number of each T-cell population.

The subject of a further assay is TH17 cells. Kind of assay: Evaluation of TH17 responses (CD4+ IL-17A+ T cells, IL-17A ELISA). It is filed as cell-based, human. Here is the method:
To optimize the detection of IL-17A producing cells, nylon-wool-purified T cells underwent CD4^+ magnetic-bead selection. The CD4^+ T cells were cultured in triplicate with allogeneic, mature moDCs (DC:T cell ratio 1:30, 1×10^6 T cells/1 ml medium in a 48-well plate, 37° C.) and treated with S3I-201 (50 or 100 μM) or DMSO. The medium was supplemented with IL-6 (10^5 IU/ml), TGF-β (4 ng/ml), and anti-IFN-γ mAb (10 μg/ml) to support TH17 growth. The T cells were harvested and stimulated with PMA/ionomycin for 5 h, with GolgiStop Protein Transport Inhibitor (BD Biosciences) added after 1 h of activation. TH17 cells were identified by surface CD3 and CD4 expression, followed by intracellular staining for IL-17A. The absolute number of IL-17A-producing CD4^+ T cells was obtained by timed acquisition.
The concentration of IL-17A was measured (anti-human IL-17A [homodimer] ELISA Ready-Set-Go; eBioscience) in the supernatant of identically prepared and drug-treated CD4 T-cell allo-MLRs (DC:T cell ratio 1:30, 1.5×10^5 T cells per 125 μl medium in a 96-well plate, 37° C.). After 5 days, PMA/ionomycin was added directly to the cultures and stimulated for 5 h. GolgiStop was omitted from the PMA/ionomycin activation step, to permit detection of IL-17A in the culture supernatants. The supernatants were collected, and the IL-17A protein concentration was measured in triplicate, per the manufacturer's instructions.
(In general: In an ELISA, binding on a coated surface is turned into a signal by an enzyme label.)

In the next assay the test system is S6 ribosomal protein. Kind of assay: Akt-mTOR-S6 signaling in IL-2-stimulated donor T-cells. The following applies: S3I-201 50 uM, 4 hours, IL-2 pulse. In kind it is cell-based, human. The protocol: T-cells were serum-starved in RPMI treated with DMSO diluent control, rapamycin 100 ng/ml (EMD Millipore, Billerica, Mass. USA), or STAT3 inhibitor S3I-201 50 uM (H. Lee Moffitt Cancer Center, Drug Discovery Core) for 4 hours. For the STAT3 experiments, the T-cells were first DC-allostimulated (DC:T-cell ratio of 1:30) for 3 days to optimize surface expression of IL-6 receptor alpha and STAT3 signaling among healthy volunteers. The T-cells were then cytokine-pulsed for 15 minutes with either IL-2 (R&D Systems) to activate the Akt-mTOR-S6 pathway, or IL-6 to stimulate STAT3 phosphorylation. The cells were then fixed and permeabilized as described, and then stained for CD3, CD4 (STAT3 experiments), phosphorylated STAT3 Y705, and phosphorylated S6.

Assay [3] deals with STAT3 Ser727 and Y705 motifs (Homo sapiens, UniProt P40763). As to conditions: literature; cited from earlier work.
STAT3 Ser727 and Y705 motifs, sequence (P40763 whole entry): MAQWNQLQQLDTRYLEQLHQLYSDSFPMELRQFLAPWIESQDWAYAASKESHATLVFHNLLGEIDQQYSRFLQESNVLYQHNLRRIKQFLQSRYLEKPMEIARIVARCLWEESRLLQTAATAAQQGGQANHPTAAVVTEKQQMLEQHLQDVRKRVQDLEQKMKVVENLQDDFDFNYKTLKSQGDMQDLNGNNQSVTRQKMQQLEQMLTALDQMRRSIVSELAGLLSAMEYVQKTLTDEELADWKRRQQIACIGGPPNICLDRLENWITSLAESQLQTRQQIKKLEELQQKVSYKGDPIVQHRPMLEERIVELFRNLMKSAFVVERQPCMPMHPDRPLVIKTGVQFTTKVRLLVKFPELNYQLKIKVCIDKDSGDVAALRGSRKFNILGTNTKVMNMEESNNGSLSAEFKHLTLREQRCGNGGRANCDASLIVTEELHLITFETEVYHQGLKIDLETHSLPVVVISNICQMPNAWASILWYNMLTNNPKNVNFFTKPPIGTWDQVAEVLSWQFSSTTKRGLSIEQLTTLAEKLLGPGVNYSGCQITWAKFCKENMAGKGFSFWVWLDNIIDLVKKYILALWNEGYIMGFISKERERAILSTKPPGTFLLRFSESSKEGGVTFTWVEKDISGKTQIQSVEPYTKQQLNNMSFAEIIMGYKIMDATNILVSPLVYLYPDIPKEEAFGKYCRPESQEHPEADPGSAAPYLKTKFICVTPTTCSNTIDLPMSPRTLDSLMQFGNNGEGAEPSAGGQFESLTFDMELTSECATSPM
The mark [4] stands for this setting: S3I-201 50 or 100 μM, 5 day allo-MLR.
Where [5] appears, read: S3I-201 50 or 100 μM, 5 day coculture with IL-6, TGF-β, anti-IFN-γ mAb.

Consider `Cc1ccc(S(=O)(=O)OCC(=O)Nc2ccc(C(=O)O)c(O)c2)cc1` [S3I-201], for which, in the assay on STAT5 [1] (S3I-201 100 μM vs DMSO), the “off-target effect on IL-2/STAT5 phosphorylation (geometric MFI ratio, percentage)” value is given as “decrease in IL-2/STAT5 phosphorylation”. For the same compound, in the assay on STAT5 [1] (S3I-201 50 or 100 μM, 15 min IL-2 pulse, vs unstimulated baseline), the “IL-2-induced STAT5 phosphorylation” value is recorded as “occurred in all treated T cells”. The “CD4+, pSTAT5Bright population” value in the assay on STAT5 [2] (S3I-201 100 μM) was “trend in reduced STAT5 phosphorylation”. Besides, in the assay on STAT5 [2] (setting [4]), the “STAT5 activation in response to DC allostimuli” value is recorded as “preserved” and the “ratio of CD4+, pSTAT5Bright to CD4+, pSTAT3+ T cells” value is recorded as “robust, dose-dependent polarization”. For the same compound, the “CD4+, pSTAT5Bright population” value in the assay with STAT5 [2] (S3I-201 vs DMSO, 5 day allo-MLR) is on record as “maintained”. Besides, the “absolute number of iTregs” value with iTregs and Tconvs (S3I-201 25 μM and 50 μM, dose-dependent, day 5) was “significantly increased”. Also, in the assay with iTregs and Tconvs (S3I-201 100 μM), the “number of iTregs compared with DMSO” value is given as “significantly reduced”. Besides, in the assay with iTregs and Tconvs (S3I-201, day 5), the “number of alloreactive Tconvs” value was “dramatically reduced” and the “ratio of iTregs to Tconvs” value is on record as “increased ratio”. Besides, in the assay with TH17 cells (setting [5]), the “absolute numbers of CD4+, IL-17A+ T cells compared with DMSO” value was “significant reduction” and the “frequency of CD4+, IL-17A+ T cells compared with DMSO” value is “significant reduction”. Besides, the “IL-17A protein concentration in coculture supernatants” value in the assay with TH17 cells (S3I-201, 5 day coculture, ELISA) is “significant decrease”. Further, the S6 activation entry in the assay on S6 ribosomal protein is reported as “modestly reduced”. Moreover, in assay [3], the “phosphorylation of the STAT3 Ser727 motif” value is “much less” and the “phosphorylation of the STAT3 Y705 motif” value is on record as “predominantly inhibits”.

The record behind these values is patent publication US11406707B2, “STAT3 phosphorylation during graft-versus-host disease” (H. LEE MOFFITT CANCER CENTER AND RESEARCH INSTITUTE, INC., priority 2014, dated 2022).
